Where “and” joins values, the source holds several entries; their conditions need not be identical. Identical values can stand only once.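 96-well plates; 48 h exposure; 5 concentrations. Endpoints by linear interpolation between flanking doses. Not reached: highest tested concentration assigned. Abbreviation: GI50, concentration required for 50% inhibition of growth. TGI: concentration producing complete growth inhibition.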
What was measured:
Assay in all cases: NCI anticancer screen, dose series, 48 h
[1] = tested on: U251 CNS
[2] = tested on: NCI-H522 lung
[3] = tested on: SN12C renal
[4] = tested on: MALME-3M melanoma
[5] = tested on: CAKI-1 renal
[6] = tested on: SNB-75 CNS
[7] = tested on: IGROV1 ovarian
[8] = tested on: SR leukemia
[9] = tested on: A498 renal
[10] = tested on: SF-539 CNS

Compound | TGI [1] | TGI [2] | TGI [3] | TGI [4] | TGI [5] | TGI [6] | TGI [7] | TGI [8] | TGI [9] | TGI [10] | GI50 [1] | GI50 [2] | GI50 [10] | GI50 [3] | GI50 [4] | GI50 [5] | GI50 [6] | GI50 [7] | GI50 [8] | GI50 [9]
NC(CCc1ccccc1)(C(=O)O)c1ccccc1 (stereo unspecified) | > 100 µM | > 100 µM | > 100 µM | > 100 µM | > 100 µM | > 100 µM | > 100 µM | > 100 µM | > 100 µM | – | – | – | – | – | – | – | – | – | – | –
NCCCCN | > 100 µM | > 100 µM | – | > 100 µM | 30.2 µM | > 100 µM | > 100 µM | > 100 µM | > 100 µM | > 100 µM | – | – | – | – | – | – | – | – | – | –
CC(C)c1ccc2c(c1)[C@@]1(C)CC[C@H](C)C(C)(C)C1CC2 (stereo partly specified) | – | 75.3 µM | 31.8 µM | 37 µM | 50.6 µM | 31.6 µM | > 100 µM | 67.5 µM | 34.9 µM | 39.6 µM | – | – | – | – | – | – | – | – | – | –
C[C@H](Nc1ccc(C#N)n(C)c1=O)c1cc2cc(Cl)ccc2[nH]c1=O | > 100 µM | > 100 µM | > 100 µM | > 100 µM | > 100 µM | 55.4 µM | 89.7 µM | > 100 µM | 92.2 µM | > 100 µM | 30 µM | 29.6 µM | 40.2 µM | 26.7 µM | 25.3 µM | 19.6 µM | 4.67 µM | 16 µM | 27.7 µM | 20.4 µM
O=P(O)(O)OP(=O)(O)O | > 100 µM | > 100 µM | > 100 µM | > 100 µM | > 100 µM | > 100 µM | > 100 µM | > 100 µM | > 100 µM | > 100 µM | – | – | – | – | – | – | – | – | – | –
CC(C)(C)OC(=O)N1C[C@H](CC(=O)OCc2ccccc2)C[C@H]1C(=O)OCC(Cl)(Cl)Cl | 16.1 µM | 13.6 µM | > 50 µM | 25.3 µM | > 50 µM | > 50 µM | – | 15.7 µM | 25.9 µM | > 50 µM | – | – | – | – | – | – | – | – | – | –
COC1OC(C(=O)CP(=O)(OC)OC)C(OCc2ccccc2)C(OCc2ccccc2)C1OCc1ccccc1 (stereo unspecified) | 29 µM and 30.3 µM | 29.5 µM and 32.2 µM | 30.1 µM and 30 µM | 32.4 µM and 34.5 µM | 36 µM and 36.7 µM | 29.9 µM and 30.6 µM | 35.9 µM and 35.4 µM | 39.1 µM and 65.7 µM | 27.1 µM | 33 µM and 31.9 µM | – | – | – | – | – | – | – | – | – | –
CCN(CC)/[N+]([O-])=N/OC | > 100 µM | > 100 µM | > 100 µM | – | – | – | > 100 µM | > 100 µM | > 100 µM | > 100 µM | – | – | – | – | – | – | – | – | – | –
Cc1cc(O)c2c(c1O)C(=O)c1c(O)ccc(O)c1C2=O | > 100 µM | > 100 µM | > 100 µM | > 100 µM | > 100 µM | > 100 µM | > 100 µM | > 100 µM | > 100 µM | > 100 µM | – | – | – | – | – | – | – | – | – | –
CCOC(=O)C(=CNC(Cc1c[nH]c2ccccc12)C(=O)OC)C(=O)OCC (stereo unspecified) | > 100 µM | > 100 µM | > 100 µM | > 100 µM | > 100 µM | > 100 µM | > 100 µM | – | > 100 µM | > 100 µM | – | – | – | – | – | – | – | – | – | –
COc1ccc(Cc2nc3cc(Cl)ccc3o2)cc1 | > 100 µM | > 100 µM | > 100 µM | > 100 µM | > 100 µM | 59.1 µM | > 100 µM | > 100 µM | – | > 100 µM | – | – | – | – | – | – | – | – | – | –
CCCCCCOC(=O)C(N)Cc1ccc(OC)cc1 (stereo unspecified) | > 100 µM | > 100 µM | > 100 µM | > 100 µM | > 100 µM | > 100 µM | > 100 µM | > 100 µM | – | > 100 µM | – | – | – | – | – | – | – | – | – | –
COC(=N)C(C)C | > 100 µM | > 100 µM | > 100 µM | > 100 µM | > 100 µM | > 100 µM | > 100 µM | > 100 µM | – | > 100 µM | – | – | – | – | – | – | – | – | – | –
C/C(=C\CNc1ncnc2nc(Cl)[nH]c12)CO | – | > 100 µM | > 100 µM | > 100 µM | > 100 µM | > 100 µM | > 100 µM | > 100 µM | > 100 µM | > 100 µM | – | – | – | – | – | – | – | – | – | –
O=S1c2ccccc2N=C(c2ccc3ccccc3c2)CC1c1ccccc1 (stereo unspecified) | 32.6 µM | 34.9 µM | 73.9 µM | – | > 100 µM | 38.5 µM | 40.3 µM | 63.8 µM | 35.9 µM | 37.7 µM | – | – | – | – | – | – | – | – | – | –
C=C1CCCC(C)(C)[C@@H]1CC/C(C)=C/Cn1c2cccc(=O)c-2nc2ccccc21 | – | > 100 µM | – | > 100 µM | 10.7 µM | 4.54 µM and 5.04 µM | 8.87 µM and 6.11 µM | – | 70.2 µM and 14.1 µM | 9.57 µM and 3.55 µM | 10.7 µM | 6.35 µM | 3.01 µM | 5.57 µM | 5.76 µM | – | 2.09 µM | 2.71 µM | – | 7.76 µM

Compound | TGI [1] | TGI [2] | TGI [3] | TGI [4] | TGI [5] | TGI [6] | TGI [7] | TGI [8] | TGI [9] | TGI [10] | GI50 [1] | GI50 [2] | GI50 [10] | GI50 [3] | GI50 [4] | GI50 [5] | GI50 [6] | GI50 [7] | GI50 [8] | GI50 [9]
CC(C)(C)c1ccc(O)c(Br)c1 | > 100 µM | > 100 µM | > 100 µM | > 100 µM | – | > 100 µM | > 100 µM | > 100 µM | > 100 µM | > 100 µM | – | – | – | – | – | – | – | – | – | –
COc1cccc(/C=N/[N-]C(N)=O)c1[O-].[Cu+2].[OH3+].c1cnc2c(c1)ccc1cccnc12 | 17.7 µM | – | > 100 µM | 33.3 µM | 33.9 µM | 24.4 µM | 45.7 µM | > 100 µM | 21.8 µM | 21.6 µM | – | – | – | – | – | – | – | – | – | –
O=c1oc2c(ccc3occc32)c(N2CCCCC2)c1-c1ccccc1 | > 100 µM | > 100 µM | > 100 µM | > 100 µM | – | > 100 µM | > 100 µM | – | > 100 µM | > 100 µM | – | – | – | – | – | – | – | – | – | –
Fc1cc(C2=C[C@H](c3ccc4c(c3)OCO4)NC(=S)N2)c(Cl)cc1Cl | > 100 µM | > 100 µM | 90.8 µM | 95.4 µM | > 100 µM | 91.1 µM | > 100 µM | > 100 µM | 79 µM | > 100 µM | – | – | – | – | – | – | – | – | – | –
O=C(N/N=C\c1ccc([N+](=O)[O-])cc1)Nc1ccccc1 | > 100 µM | – | > 100 µM | > 100 µM | > 100 µM | > 100 µM | > 100 µM | > 100 µM | > 100 µM | – | – | – | – | – | – | – | – | – | – | –
CC(C)(C)OC(=O)N1C(C2=COc3ccccc3O2)=COc2cccnc21 | 3.13 µM | 3.49 µM | 3.37 µM | 2.76 µM | 6.82 µM | 29.2 µM | 3.35 µM | 5.9 µM | 3.32 µM | 4.01 µM | – | – | – | – | – | – | – | – | – | –
NC(N)=NS(=O)(=O)c1ccc(Nc2c3ccccc3nc3c(C(=O)N4CCN(CCO)CC4)ccc(Cl)c23)cc1 | > 100 µM | – | > 100 µM | > 100 µM | > 100 µM | > 100 µM | > 100 µM | – | > 100 µM | > 100 µM | – | – | – | – | – | – | – | – | – | –
Clc1ccc(NCc2nnc(COc3ccc(OCc4nnc(CNc5ccc(Cl)cc5)o4)c(Cl)c3)o2)cc1 | > 100 µM | 46.5 µM | > 100 µM | > 100 µM | > 100 µM | – | > 100 µM | 13.6 µM | > 100 µM | – | – | – | – | – | – | – | – | – | – | –
O=C(CSc1nc2ccc(Cl)cc2c(=O)n1-c1ccccc1)N=Nc1c(O)[nH]c2ccc(F)cc12 | 3.27 µM | 3.86 µM | 4.67 µM | 11.6 µM | 11.6 µM | 5.65 µM | 4.39 µM | – | 9.8 µM | 15.2 µM | – | – | – | – | – | – | – | – | – | –
COc1cc(S(=O)(=O)N/N=C/C=C/c2ccccc2)c(OC)cc1NC(C)=O | – | > 100 µM | > 100 µM | > 100 µM | > 100 µM | > 100 µM | > 100 µM | > 100 µM | > 100 µM | 81.7 µM | – | – | – | – | – | – | – | – | – | –
COC(=O)c1c(O)ccc2c1c1c(n2Cc2ccccn2)C(=O)c2ccccc2C1 | > 100 µM | – | > 100 µM | > 100 µM | > 100 µM | > 100 µM | > 100 µM | > 100 µM | > 100 µM | > 100 µM | – | – | – | – | – | – | – | – | – | –
Cc1cc(N2CCOCC2)nc(N(CCCNc2ccnc3cc(Cl)ccc23)Cc2ccc3c(c2)OCO3)n1 | 2.12 µM | – | – | – | – | 2.93 µM | – | 0.593 µM | 3.42 µM | – | 0.936 µM | – | – | – | – | – | 1.5 µM | – | 0.186 µM | 1.51 µM
O=CC(O)C(O)C(O)COc1cc(CO)cc2c1C(=O)c1ccccc1C2=O (stereo unspecified) | > 100 µM | > 100 µM | > 100 µM | > 100 µM | > 100 µM | > 100 µM | > 100 µM | > 100 µM | > 100 µM | > 100 µM | – | – | – | – | – | – | – | – | – | –
CC(Br)C(=O)c1ccc2cc(Br)c3ccccc3c2c1 (stereo unspecified) | 26.5 µM | 16.7 µM | 23.3 µM | 28.8 µM | 30.1 µM | 29 µM | 26.3 µM | 21.2 µM | 33.1 µM | – | – | – | – | – | – | – | – | – | – | –
CC(C)=CCC/C(C)=C/CC/C(C)=C/[C@@H]1[C@@H](CO)[C@]1(C)CC/C=C(\C)CCC=C(C)C | > 100 µM | 32.7 µM | > 100 µM | > 100 µM | > 100 µM | > 100 µM | 27.5 µM | 55 µM | > 100 µM | 59 µM | – | – | – | – | – | – | – | – | – | –

Source: PubChem BioAssay (NCI)
